{"source": "patent US8759500B2", "about": "“Crystalline forms of a macrolide, and uses therefor” (Cempra Pharmaceuticals, Inc., priority 2010, dated 2014)", "test": "Stability of Form I and Form II under various storage conditions", "format": "physicochemical", "text": "In each case, the test material was first placed in Primary Packaging Material (LLDPE bag within a HMHDPE/LDPE/LDPE blend bag, and then heat sealed). The Primary Packaging Material was placed in Secondary Packaging Material (HDPE drum). All other impurities were less than 1% at each time point.", "data": [{"smiles": "CC[C@H]1OC(=O)[C@@](C)(F)C(=O)[C@H](C)[C@@H](O[C@@H]2O[C@H](C)C[C@H](N(C)C)[C@H]2O)[C@](C)(OC)C[C@@H](C)C(=O)[C@H](C)[C@H]2N(CCCCn3cc(-c4cccc(N)c4)nn3)C(=O)O[C@]12C", "note": "[Form II, solithromycin]", "values": [{"measurement": "Assay (on hydrous basis)", "setting": "2-8° C., 3 Month", "result": 93.4, "unit": "%"}, {"measurement": "Chromatographic Purity", "setting": "2-8° C., 3 Month", "result": 96.0}, {"measurement": "Water", "setting": "2-8° C., 3 Month", "result": 1.24, "unit": "%"}, {"measurement": "Assay (on hydrous basis)", "setting": "2-8° C., 6 Month", "result": 93.6, "unit": "%"}, {"measurement": "Chromatographic Purity", "setting": "2-8° C., 6 Month", "result": 96.8}, {"measurement": "Water", "setting": "2-8° C., 6 Month", "result": 1.39, "unit": "%"}, {"measurement": "3-Ethynylaniline", "setting": "2-8° C., 9 Month", "result": 0.01, "unit": "%"}, {"measurement": "Assay (on hydrous basis)", "setting": "2-8° C., 9 Month", "result": 93.3, "unit": "%"}, {"measurement": "Chromatographic Purity", "setting": "2-8° C., 9 Month", "result": 96.4}, {"measurement": "Water", "setting": "2-8° C., 9 Month", "result": 1.38, "unit": "%"}, {"measurement": "3-Ethynylaniline", "setting": "2-8° C., 12 Month", "result": 0.12, "unit": "%"}, {"measurement": "Assay (on hydrous basis)", "setting": "2-8° C., 12 Month", "result": 93, "unit": "%"}, {"measurement": "Chromatographic Purity", "setting": "2-8° C., 12 Month", "result": 96.8}, {"measurement": "Water", "setting": "2-8° C., 12 Month", "result": 1.37, "unit": "%"}, {"measurement": "Assay (on hydrous basis)", "setting": "2-8° C., Initial", "result": 93.9, "unit": "%"}, {"measurement": "Chromatographic Purity", "setting": "2-8° C., Initial", "result": 97.0}, {"measurement": "Water", "setting": "2-8° C., Initial", "result": 1.01, "unit": "%"}, {"measurement": "Assay (on hydrous basis)", "setting": "25° C./60% RH, 3 Month", "result": 93.6, "unit": "%"}, {"measurement": "Chromatographic Purity", "setting": "25° C./60% RH, 3 Month", "result": 96.0, "unit": "%"}, {"measurement": "Water", "setting": "25° C./60% RH, 3 Month", "result": 1.16, "unit": "%"}, {"measurement": "Assay (on hydrous basis)", "setting": "25° C./60% RH, 6 Month", "result": 93.7, "unit": "%"}, {"measurement": "Chromatographic Purity", "setting": "25° C./60% RH, 6 Month", "result": 96.7, "unit": "%"}, {"measurement": "Water", "setting": "25° C./60% RH, 6 Month", "result": 1.42, "unit": "%"}, {"measurement": "3-Ethynylaniline", "setting": "25° C./60% RH, 9 Month", "result": 0.04, "unit": "%"}, {"measurement": "Assay (on hydrous basis)", "setting": "25° C./60% RH, 9 Month", "result": 93.2, "unit": "%"}, {"measurement": "Chromatographic Purity", "setting": "25° C./60% RH, 9 Month", "result": 96.2, "unit": "%"}, {"measurement": "Water", "setting": "25° C./60% RH, 9 Month", "result": 1.45, "unit": "%"}, {"measurement": "3-Ethynylaniline", "setting": "25° C./60% RH, 12 Month", "result": 0.11, "unit": "%"}, {"measurement": "Assay (on hydrous basis)", "setting": "25° C./60% RH, 12 Month", "result": 93.0, "unit": "%"}, {"measurement": "Chromatographic Purity", "setting": "25° C./60% RH, 12 Month", "result": 96.1, "unit": "%"}, {"measurement": "Water", "setting": "25° C./60% RH, 12 Month", "result": 1.48, "unit": "%"}, {"measurement": "Assay (on hydrous basis)", "setting": "25° C./60% RH, Initial", "result": 93.9, "unit": "%"}, {"measurement": "Chromatographic Purity", "setting": "25° C./60% RH, Initial", "result": 97.0, "unit": "%"}, {"measurement": "Water", "setting": "25° C./60% RH, Initial", "result": 1.01, "unit": "%"}, {"measurement": "Assay (on hydrous basis)", "setting": "40° C./75% RH, 3 Month", "result": 93.0, "unit": "%"}, {"measurement": "Chromatographic Purity", "setting": "40° C./75% RH, 3 Month", "result": 95.9, "unit": "%"}, {"measurement": "Water", "setting": "40° C./75% RH, 3 Month", "result": 1.24, "unit": "%"}, {"measurement": "Assay (on hydrous basis)", "setting": "40° C./75% RH, 6 Month", "result": 93.1, "unit": "%"}, {"measurement": "Chromatographic Purity", "setting": "40° C./75% RH, 6 Month", "result": 96.5, "unit": "%"}, {"measurement": "Water", "setting": "40° C./75% RH, 6 Month", "result": 1.62, "unit": "%"}, {"measurement": "3-Ethynylaniline", "setting": "40° C./75% RH, 9 Month", "result": 0.02, "unit": "%"}, {"measurement": "Assay (on hydrous basis)", "setting": "40° C./75% RH, 9 Month", "result": 92.5, "unit": "%"}, {"measurement": "Chromatographic Purity", "setting": "40° C./75% RH, 9 Month", "result": 96.2, "unit": "%"}, {"measurement": "Water", "setting": "40° C./75% RH, 9 Month", "result": 1.51, "unit": "%"}, {"measurement": "3-Ethynylaniline", "setting": "40° C./75% RH, 12 Month", "result": 0.05, "unit": "%"}, {"measurement": "Assay (on hydrous basis)", "setting": "40° C./75% RH, 12 Month", "result": 92.3, "unit": "%"}, {"measurement": "Chromatographic Purity", "setting": "40° C./75% RH, 12 Month", "result": 97.1, "unit": "%"}, {"measurement": "Water", "setting": "40° C./75% RH, 12 Month", "result": 1.56, "unit": "%"}, {"measurement": "Assay (on hydrous basis)", "setting": "40° C./75% RH, Initial", "result": 93.9, "unit": "%"}, {"measurement": "Chromatographic Purity", "setting": "40° C./75% RH, Initial", "result": 97.0, "unit": "%"}, {"measurement": "Water", "setting": "40° C./75% RH, Initial", "result": 1.01, "unit": "%"}, {"measurement": "change in color of the test material", "setting": "during the entire study, all storage conditions", "result": "no observed change in color"}]}]}
